PubChem BioAssay AID2060355 (Molecular Pharmacology Branch, DTP, NCI, 2025)

Tested on: 485368-065-R4-J2-PDC spheroids with HUVEC/MSC, viability
Assay: Anticancer human tumor 485368-065-R4-J2-PDC patient-derived pancreatic carcinoma cell line growth inhibition [TAK]
Settings: for IC50: curve of first compound; for viability, T/C: stronger effect = lower value
Excerpt: Combinatorial screen of targeted agents with TAK-243 and ipatasertib in multi-cell type tumor spheroids
A high-throughput screen of multi-cell type tumor spheroids was designed to identify active combinations of targeted small molecules and TAK-243 or ipatasertib. Complex spheroids include a stromal component modeled by human endothelial cells (HUVEC) and fibroblasts modeled by human mesenchymal stem cells (MSCs). The concentration ranges selected for each drug and investigational agent were based upon clinically achievable concentrations if the clinical Cmax of the agent was known.
Compounds. The drugs and investigational agents: TAK-243 (785004), ipatasertib (767898), everolimus (733504), selumetinib (741078), bortezomib (756655), trametinib (758246), ixazomib (758254), vemurafenib (761431), dabrafenib (764134), sapanisertib (764658), alpelisib (765974), and copanlisib (816437), were obtained from the National Cancer Institute (NCI) Developmental Therapeutics Program Chemical Repository. The FDA-approved anticancer drug set is available from the NCI Developmental Therapeutics Program. […] The stock solutions were prepared in dimethyl sulfoxide (DMSO, Sigma-Aldrich, St. Louis, MO, cat. D2650) at 800-fold the tested concentration and stored at -70 degrees C prior to their use. All drugs and investigational agents were tested over a range starting from a high concentration at or near the clinical Cmax and decreasing in half-log increments. If the clinical Cmax for an agent had not been determined, the highest concentration tested was 10 microM.
NCI60 Cell Culture. NCI60 cell lines were obtained from the NCI Developmental Therapeutics Program Tumor Repository. For each lot of cells, the Repository performed Applied Biosystems AmpFLSTR Identifiler testing with PCR amplification to confirm consistency with the published Identifier STR profile for each cell line. Cells were kept in continuous culture for no more than 20 passages. The optimal seeding densities for each of the cell lines at each time point assessed were determined prior to performing the concentration response studies. Briefly, the NCI60 human tumor lines were grown as monolayers in RPMI 1640 medium supplemented with 10% FBS and 2 mmol/L L-glutamine.
An additional 2 lines were from the NCI60 cell line panel including melanomas, MALME-3M and SK-MEL-2. Pooled donor human umbilical vein endothelial cells (HUVEC, Lonza, cat. CC-2519) and human mesenchymal stem cells (hMSC, Lonza, cat. PT-2501) were purchased from Lonza (Walkersville, MD).
PDMR cell lines were grown in complete medium (DC medium): Dulbecco's modified Eagle's medium (DMEM)/F12 supplemented with 5% fetal bovine serum (FBS), 2 mM L-glutamine, 100 U/mL penicillin and 100 µg/ml streptomycin, 0.4 µg/ml hydrocortisone, 10 ng/ml epidermal growth factor (EGF) recombinant human protein, 24 µg/mL adenine, and 0.1 mg/mL primocin. During culture from frozen stock vials, PDMR cells were cultured in the same medium containing 10 µM Y-27632 (see Table 3). The PDCs were cultured in complete DMEM/F12 media without 10 microM Y-27632 dihydrochloride for at least two passages prior to the screen. The pooled donor HUVEC and hMSC were cultured in endothelial cell growth medium 2 (PromoCell, Heidelberg, Germany, cat. C-22011) and mesenchymal stem cell growth medium 2 (PromoCell, cat. C-28009), respectively. For all experiments, HUVEC and hMSC were used at passages </=5.
For the pre-screen, cell seeding densities were determined from a titration spanning the range from 5,000 to 313 cells per well. The mct-spheroids including 60% malignant cells, 25% HUVEC and 15% MSC dispensed as a mixture into U-bottom Ultra-Low Attachment 384-well plates (Corning, NY)
High-throughput Drug Combination Screening.
Prior to their inoculation into 384-well plates, malignant cells, HUVEC, and hMSC were removed from T flasks using TrypLE express (Thermo Fisher Scientific, cat. 12605036) and harvested by centrifugation for 5 min at 233 x g. […]
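Note: spheroids exposed to compounds for seven days before readout.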
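Throughout, for viability, T/C: 100% = DMSO vehicle control wells.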

CC(C)CC(NC(=O)C(Cc1ccccc1)NC(=O)c1cnccn1)B(O)O (stereo not given) + CC(C)NCC(C(=O)N1CCN(c2ncnc3c2C(C)CC3O)CC1)c1ccc(Cl)cc1
IC50 (second compound 0.3 µM): 5.9 nM
IC50 (second compound 0.949 µM): 5.92 nM
IC50 (second compound 3 µM): 5.94 nM
IC50 (second compound 9.49 µM): 5.13 nM
IC50 (second compound 30 µM): 4.63 nM
viability, T/C (second compound 0.3 µM, first compound 31.6 pM): 98.2%
viability, T/C (second compound 0.3 µM, first compound 0.0001 µM): 96.9%
viability, T/C (second compound 0.3 µM, first compound 0.000316 µM): 90.6%
viability, T/C (second compound 0.3 µM, first compound 0.001 µM): 92.2%
viability, T/C (second compound 0.3 µM, first compound 0.00316 µM): 108%
viability, T/C (second compound 0.3 µM, first compound 0.01 µM): 10%
viability, T/C (second compound 0.949 µM, first compound 31.6 pM): 94.5%
viability, T/C (second compound 0.949 µM, first compound 0.0001 µM): 94.3%
viability, T/C (second compound 0.949 µM, first compound 0.000316 µM): 103%
viability, T/C (second compound 0.949 µM, first compound 0.001 µM): 98.4%
viability, T/C (second compound 0.949 µM, first compound 0.00316 µM): 102%
viability, T/C (second compound 0.949 µM, first compound 0.01 µM): 9.62%
viability, T/C (second compound 3 µM, first compound 31.6 pM): 94.3%
viability, T/C (second compound 3 µM, first compound 0.0001 µM): 101%
viability, T/C (second compound 3 µM, first compound 0.000316 µM): 98.5%
viability, T/C (second compound 3 µM, first compound 0.001 µM): 92.2%
viability, T/C (second compound 3 µM, first compound 0.00316 µM): 94.9%
viability, T/C (second compound 3 µM, first compound 0.01 µM): 12.9%
viability, T/C (second compound 9.49 µM, first compound 31.6 pM): 97%
viability, T/C (second compound 9.49 µM, first compound 0.0001 µM): 94.2%
viability, T/C (second compound 9.49 µM, first compound 0.000316 µM): 91.1%
viability, T/C (second compound 9.49 µM, first compound 0.001 µM): 95.2%
viability, T/C (second compound 9.49 µM, first compound 0.00316 µM): 79.7%
viability, T/C (second compound 9.49 µM, first compound 0.01 µM): 8.65%
viability, T/C (second compound 30 µM, first compound 31.6 pM): 78.5%
viability, T/C (second compound 30 µM, first compound 0.0001 µM): 81.9%
viability, T/C (second compound 30 µM, first compound 0.000316 µM): 77.6%
viability, T/C (second compound 30 µM, first compound 0.001 µM): 78%
viability, T/C (second compound 30 µM, first compound 0.00316 µM): 71.2%
viability, T/C (second compound 30 µM, first compound 0.01 µM): 6.97%

Cn1cnc2c(F)c(Nc3ccc(Br)cc3Cl)c(C(=O)NOCCO)cc21 + CC(C)NCC(C(=O)N1CCN(c2ncnc3c2C(C)CC3O)CC1)c1ccc(Cl)cc1
IC50 (second compound 0.3 µM): 261 nM
IC50 (second compound 0.949 µM): 51 nM
IC50 (second compound 3 µM): 32.6 nM
IC50 (second compound 9.49 µM): 17.1 nM
IC50 (second compound 30 µM): 9.58 nM
viability, T/C (second compound 0.3 µM, first compound 0.00949 µM): 76.1%
viability, T/C (second compound 0.3 µM, first compound 0.03 µM): 69.6%
viability, T/C (second compound 0.3 µM, first compound 0.0949 µM): 59%
viability, T/C (second compound 0.3 µM, first compound 0.3 µM): 48.5%
viability, T/C (second compound 0.3 µM, first compound 0.949 µM): 37%
viability, T/C (second compound 0.3 µM, first compound 3 µM): 23%
viability, T/C (second compound 0.949 µM, first compound 0.00949 µM): 70%
viability, T/C (second compound 0.949 µM, first compound 0.03 µM): 56.2%
viability, T/C (second compound 0.949 µM, first compound 0.0949 µM): 42.9%
viability, T/C (second compound 0.949 µM, first compound 0.3 µM): 30.3%
viability, T/C (second compound 0.949 µM, first compound 0.949 µM): 21.7%
viability, T/C (second compound 0.949 µM, first compound 3 µM): 13.5%
viability, T/C (second compound 3 µM, first compound 0.00949 µM): 72.5%
viability, T/C (second compound 3 µM, first compound 0.03 µM): 51.6%
viability, T/C (second compound 3 µM, first compound 0.0949 µM): 31.2%
viability, T/C (second compound 3 µM, first compound 0.3 µM): 19.4%
viability, T/C (second compound 3 µM, first compound 0.949 µM): 13.6%
viability, T/C (second compound 3 µM, first compound 3 µM): 10.7%
viability, T/C (second compound 9.49 µM, first compound 0.00949 µM): 60.4%
viability, T/C (second compound 9.49 µM, first compound 0.03 µM): 40.6%
viability, T/C (second compound 9.49 µM, first compound 0.0949 µM): 24.1%
viability, T/C (second compound 9.49 µM, first compound 0.3 µM): 17.4%
viability, T/C (second compound 9.49 µM, first compound 0.949 µM): 10.9%
viability, T/C (second compound 9.49 µM, first compound 3 µM): 8.27%
viability, T/C (second compound 30 µM, first compound 0.00949 µM): 50.1%
viability, T/C (second compound 30 µM, first compound 0.03 µM): 33.9%
viability, T/C (second compound 30 µM, first compound 0.0949 µM): 21.2%
viability, T/C (second compound 30 µM, first compound 0.3 µM): 15.5%
viability, T/C (second compound 30 µM, first compound 0.949 µM): 11.1%
viability, T/C (second compound 30 µM, first compound 3 µM): 9.61%
